What was measured:
Format in all cases: cell-based
[1] = system: Bifidobacterium animalis subsp. lactis JCM10602 strain; assay: Induction of EPS production by L-fucose in JCM10602 strain; details: anaerobic, 37° C.; for amount of EPS produced, extracted with ethanol / amount of EPS produced, extracted with trichloracetic acid: 0.5% sugar in mMRS culture medium, 96 hours, culture supernatant
Method: In order to confirm whether the production of EPS is induced by L-fucose in other bacteria of the genus Bifidobacterium, the following test was carried out using the JCM10602 strain and the JCM1192 strain.
(§1) Note that the JCM10602 strain is Bifidobacterium animalis subsp. lactis (i.e., Bifidobacterium lactis), which is frequently used as a probiotic and is known to produce EPS at a high level, and the JCM1192 strain is a standard strain of Bifidobacterium breve, which is the same species as AT-APC-FucE1.
The JCM10602 strain was anaerobically cultured in a 0.5% Fuc mMRS culture medium and in a 0.5% Glu mMRS culture medium at 37° C. for 96 hours by the method described in Test 3 above.
When the EPS extracted from the culture supernatant was assayed, the amount of EPS produced in the culture medium using D-glucose (that is, the 0.5% Glu mMRS culture medium) was 132.97 mg/1000 mL (when extracted with trichloracetic acid) and 4.74 mg/1000 mL (when extracted with ethanol), whereas the amount of EPS produced in the culture medium using L-fucose (that is, the 0.5% Fuc mMRS culture medium) was 166.2 mg/1000 mL (when extracted with trichloracetic acid) and 13.33 mg/1000 mL (when extracted with ethanol).

[2] = system: Bifidobacterium breve AT-APC-FucE1 strain; assay: Influence of presence or absence of L-fucose in culture medium on EPS production amount by AT-APC-FucE1 strain; details: 0.5% sugar in mMRS culture medium, anaerobic, 37° C., 96 hours
Method: The 0.5% Glu mMRS culture medium was inoculated with the AT-APC-FucE1 strain, and pre-culturing was implemented anaerobically at 37° C. for 24 hours. An amount of 100 μL of the pre-cultured culture solution was inoculated into each of a 0.5% Fuc mMRS culture medium (mMRS liquid culture medium comprising 0.5 wt. % of L-fucose) and a 0.5% Glu mMRS culture medium, and then cultured anaerobically at 37° C. for 96 hours.
The amount of crude EPS extracted from the supernatant of each culture solution was approximately the same (13.33 mg/1000 mL). However, when the amount of protein in these crude EPS samples was measured, and the amount of protein was subtracted from the amount of crude EPS, the amount of EPS produced in the culture medium that used D-glucose (that is, the 0.5% Glu mMRS culture medium) was 9.34 mg/1000 mL, whereas the amount of EPS produced in the culture medium that used L-fucose (that is, the 0.5% Fuc mMRS culture medium) was 13.14 mg/1000 mL.

[3] = system: Bifidobacterium breve JCM1192 strain; assay: Induction of EPS production by L-fucose in JCM1192 strain; details: JCM1192, standard strain of Bifidobacterium breve
Method: as §1, with “In order to confirm whether the production of EPS is induced by L-fucose in other bacteria of the genus Bifidobacterium, the following test was carried out using the JCM10602 strain and the JCM1192 strain. Note” for “Note”

[4] = system: Bifidobacterium breve AT-APC-FucE1 strain; assay: Confirmation of EPS production through culturing of AT-APC-FucE1 strain (transmission electron microscope); details: 1% Fuc mMRS culture medium vs 1% Glu mMRS culture medium, anaerobic, 37° C., 12 hours, transmission electron microscope (FIGS. 4 and 5)
From the text: An mMRS liquid culture medium comprising 0.5 wt. % and an mMRS liquid culture medium comprising 1 wt. % of D-glucose (hereinafter, the respective mMRS liquid culture mediums are also referred to as a “0.5% Glu mMRS culture medium” and a “1% Glu mMRS culture medium”, respectively) (composition: 10 g/L of beef extract, 5 g/L of yeast extract, 2 g/L of ammonium citrate, 5 g/L of sodium acetate, 0.1 g/L of magnesium sulfate, 0.05 g/L of manganese sulfate, 2 g/L of dipotassium hydrogen phosphate, 0.5 g/L of L-cysteine hydrochloride, and 0.5% or 1% D-glucose) were prepared. The 0.5% Glu mMRS culture medium was inoculated with the AT-APC-FucE1 strain, and pre-culturing was implemented anaerobically at 37° C. for 24 hours.
The 1% Fuc mMRS culture medium was then inoculated with 100 μL of the pre-cultured culture solution, and anaerobic culturing was carried out at 37° C. The AT-APC-FucE1 strain was collected from the culture solution that had been cultured for 12 hours, after which the bacterial cells were washed with phosphate-buffered saline (PBS), and subsequently, the bacterial cells were immobilized on a membrane, and the EPS production by the bacterial cells was confirmed using a transmission electron microscope. […]

SMILES | amount of EPS produced, extracted with ethanol [1] | amount of EPS produced, extracted with trichloracetic acid [1] | amount of EPS produced (amount of protein subtracted from amount of crude EPS) [2] | amount of crude EPS extracted from the supernatant of culture solution [2] | induction of EPS production [3] | production of EPS (electron microscope observation) ([1]; 0.5% Fuc mMRS vs 0.5% Glu mMRS culture medium, 96 hours (FIG. 7)) | EPS production by the bacterial cells [4]
O=C[C@H](O)[C@@H](O)[C@H](O)[C@H](O)CO [D-glucose, reference compound] | 4.74 mg/1000 mL | 132.97 mg/1000 mL | 9.34 mg/1000 mL | ~13.33 mg/1000 mL |  |  | 
C[C@H](O)[C@@H](O)[C@@H](O)[C@H](O)C=O [L-fucose] | 13.33 mg/1000 mL | 166.2 mg/1000 mL | 13.14 mg/1000 mL | ~13.33 mg/1000 mL | significant production induction by L-fucose was not confirmed | improved | remarkably promoted

— patent US20250002955A1, “Method for Promoting Production of Exopolysaccharide by Bifidobacterium Bacteria” (TOHOKU UNIVERSITY, priority 2021, published 2025)
